Columns and labels:
[1] = system: abetalipoproteinemic BBMV; experiment: [14C]Cholesterol uptake from egg PC vesicles by abetalipoproteinemic BBMV; format: biochemical, human; conditions: donor egg PC vesicles 0.01 mg lipid/ml, acceptor abetalipoproteinemic BBMV 0.25 mg lipid/ml; read-out: Inhibition IC50: concentration required to reduce protein-mediated cholesterol uptake by 50%
Method: (§1) Biopsy samples from human duodenum, 20 to 30 mg of wet tissue each, were suspended in 200 μl buffer (12 mM Tris HCl pH 7.2, 300 mM mannitol, 5 mM EGTA, 1 mM phenylmethylsulfonyl fluoride), frozen in liquid nitrogen and stored at −80° C. prior to use. BBMV were prepared by Mg^+2 precipitation (Hauser et al, Biochim. Biophys. Acta 602 567-577 (1980)) as described in detail by Booth et al (Lancet 1 1066-1069 (1985)). Proteinase K treatment of the BBMV was carried out according to Thurnhofer and Hauser (Biochim. Biophys. Acta 1024 249-262 (1990)). […] Small unilamellar phesrholipid vesicles were prepared by tip sonication (Schulthess, Biochemistry 33 4500-4508 (1994)). […]
(§2) Kinetic measurements were also carried out in the presence of inhibitors; synthetic peptides or apolipoproteins were added to the […] of donor and acceptor vesicles. Cholesterol uptake by native and proteinase K treated BBMV was determined in the presence of increasing concentrations of Ac-18A-NH2, the difference between cholesterol uptake by native and proteinase K treated BBMV is referred as protein-mediated cholesterol uptake in FIG. 6. The IC50 values were determined according to Methods Enzymol. […]

normal human BBMV = experiment: [14C]Cholesterol uptake from egg PC vesicles by normal human duodenal BBMV; format: biochemical
Method: Biopsy samples from human duodenum, 20 to 30 mg of wet tissue each, were suspended in 200 μl buffer (12 mM Tris HCl pH 7.2, 300 mM mannitol, 5 mM EGTA, 1 mM phenylmethylsulfonyl fluoride), frozen in liquid nitrogen and stored at −80° C. prior to use. BBMV were prepared by Mg^+2 precipitation (Hauser et al, Biochim. Biophys. Acta 602 567-577 (1980)) as described in detail by Booth et al (Lancet 1 1066-1069 (1985)). Proteinase K treatment of the BBMV was carried out according to Thurnhofer and Hauser (Biochim. Biophys. Acta 1024 249-262 (1990)). […] Small unilamellar phesrholipid vesicles were prepared by tip sonication (Schulthess, Biochemistry 33 4500-4508 (1994)).
(I) Egg PC small unilamellar vesicles containing […] (^14C] cholesterol and BBMV both dispersed in 10 mM Tris-HCl pH 7.2, 0.15 M NaCl, 5 mM EDTA were incubated at room temperature. After timed intervals phospholipid vesicles and BBMV were separated by centrifugation at 115000 g for 2 min in a Beckman airfuge. The radioactivities present in pellet and supernatant were determined by counting aliquots in a Beckman LS 7500 liquid scintillatior counter. Fusion of egg PC small unilamellar vesicles and BBMV as a possible mechanism of cholesterol uptake was ruled out as discussed in detail in previous studies (Thurnhofer and Hauser, Biochemistry 29 2142-2148 (1990); Compassi, Biochemistry 34 16473-16482 (1995) and Schulthess, J. Lipid. Res. 37 2405-2419 (1996)).
The experimental data were computer-fitted using the following equation valid for single-exponential exchange reactions: X=X∞+[XO−X∞]e^-k1^[(a+b)/a]t, where XO, X and X∞represent the fractions of the labelled lipid in the donor at times 0, t and at equilibrium, respectively. K1 is the pseudo-first-order rate constant of the reaction and a and b are the lipid pools of acceptor and donor, respectively (McKay, Nature 142 997-998 (1938) and Mutsch et al, Biochemistry 25 2134-2140 (1986).
(§3) Kinetic measurements were also carried out in the presence of inhibitors; synthetic peptides or apolipoproteins were added to the […] of donor and acceptor vesicles. Cholesterol uptake by native and proteinase K treated BBMV was determined in the presence of increasing concentrations of Ac-18A-NH2, the difference between cholesterol uptake by native and proteinase K treated BBMV is referred as protein-mediated cholesterol uptake in FIG. 6. The IC50 values were determined according to Methods Enzymol. 37 3-22 (1975).

BBMVs = experiment: Inhibition of cholesteryl oleate uptake by BBMVs by peptides of varying lengths (Example 8); format: biochemical; conditions: 120 μg peptide/ml
Method: going from one peptide to the other (top→bottom) 3 amino acids were removed from the N-terminus. The inhibitory effect of the four peptides listed above were compared at 120 μg peptide/ml. The lipid uptake by BBMVs was measured in the presence of 120 μg peptide/ml each as described below.
Donor and acceptor particles dispersed in Tris/NaCl buffer were centrifuged in a Beckman airfuge at 115000 g is for 2 min at 4° C. The dispersion of the acceptor yielded a pellet which was resuspended in Tris/NaCl buffer. Varying amounts of inhibitor dissolved in the same buffer were added to the acceptor dispersion and at time zero the dispersiorn of acceptor with or without inhibitor was mixed with the top 80% of the supernatant obtained by centrifugation of the donor dispersion. The final concentration of the donor was 0.05 mg total lipid/ml and that of the acceptor was 5 mg protein/ml. The resulting dispersion was incubated at 23° C. and after timed intervals the sterol uptake was stopped by dilution of the incubation medium with 2 volumes of Tris/NaCl buffer. BBMV were separated from the donor by centrifugation in the Beckman airfuge at 115000 g for 2 min at 4° C. The radioactivities in the supernatant containing the donor and in the pellet containing the BBMV (acceptor) were determined in a Beckman LS 7500 scintillation counter.

[2] = system: brush border membrane vesicles (BBMV); experiment: IC50 of cholesteryl oleate uptake at the brush border membrane (Example 6); format: biochemical, rabbit; conditions: donor 0.1 mg total lipid/ml, acceptor 2 mg protein/ml; 20 min at 25° C.
Method: An appropriate amount of inhibitor dissolved in 84.5 μl buffer (0.05 M Tris pH 7.4, 0.15 M NaCl) is mixed in an Eppendorf tube at time zero with 5 μl of a dispersion of donor and 10.5 μl of a dispersion of acceptor (i.e. brush border membrane vesicles (BBMV)) in the same buffer. The final concentration of the donor vesicles was 0.1 mg total lipid/ml, that of the acceptor was 2 mg protein/ml. The resulting mixture was incubated for 20 min at 25° C., and the reaction was stopped by adding 60 μl of the incubation medium to 120 μl ice-cold bufferin an airfuge tube. The diluted dispersion was immediately centrifuiaed in the airfuge at […] for 2 min. at 4° C. to separate donor vesicles from BBMV. Two 60 μl aliquots of the donor (=supernatant) were counted in a Beckman LS-7500 liquid scintillating counter to determine the radioactivity remaining in tbe donor.
Small unilamellar egg phosphatidycholine (PC) vesicles containing 1 mol % of cholesterol oleate and a trace amount of ^3H-cholesterol oleyl ether were made by dissolving the appropriate amounts of the lipids in CHCl3/CH3OH, (2:1, by vol.), taking the solution to dryness on a rotary evaporator and drying the residue in vacuo. The dried lipid film was dispersed in the appropriate volume of buffer by hand-shaking. The lipid dispersion was subjected to tip sonication as described in Brunner et al, J. Biol. Chem. 253 7538-7546 (1978). The resulting donor dispersion in buffer was centrifuged in the airfuge at 100000 g for 2 min at […]. Only the top 80% of the donor dispersion after centrifugation was used in the lipid uptake experiment.
BBMV were prepared from frozen rabbit small intestine according to Hauser et al (Biochim. Biophys. Acta 602 567-577 (1980)). Prior to use in the uptake experiment determining IC50 values the BBMV were washed to remove any free protein liberated from the BBM. To this end the BBMV dispersion was diluted with buffer 1:1 in an airfuge tube, and the diluted dispersion was centrifuged in the airfuga at 100000 g for 2 min at […]. The supernatant was is carefully decanted, the pellet was resuspended in buffer to the original volume of the BBMV dispersion, and the dispersion was homogenized. […]

[3] = [14C]Cholesterol transfer from egg PC vesicles to egg PC/egg PA vesicles; format: biochemical
Method: (II) Similarly, egg PC small unilamellar vesicles containing 1 mol % [^14C] cholesterol as the donor and small unilamellar vesicles of egg PC/egg PA (85:15, mole ratio) as the acceptor were incubated at room temperature. After timed intervals aliquots of the incubation mixture were filtered through DEAE Sepharose C1-CB columns, which retained the negatively charged vesicles. Pure egg PC vesicles were eluted and their radioactivity determined.
as §3

[4] = biological target: proteinase K-treated normal BBMV; experiment: [14C]Cholesterol uptake from egg PC vesicles by proteinase K-treated normal BBMV; format: biochemical, human
Method: as §1, §2

IC50 [1]: 23 ± 3 µM
IC50 [2]: 16 ± 1 µM
IC50 (μg/mL) of cholesteryl oleate uptake at the brush border membrane [2]: 35 ± 2 µg/mL
Inhibition IC50 ([3]; donor egg PC vesicles 0.01 mg lipid/ml, acceptor egg PC/egg PA vesicles 0.25 mg lipid/ml): no inhibition
Inhibition IC50 ([4]; donor egg PC vesicles 0.01 mg lipid/ml, acceptor proteinase K-treated normal BBMV 0.25 mg lipid/ml): no inhibition
inhibitory effect on cholesterol uptake (in words) ([4]; proteinase K-treated BBMV): no inhibitory effect
Substance: Ac-Asp-Trp-Leu-Lys-Alα-Phe-Tyr-Asp-Lys-Val-Alα -Glu-Lys-Leu-Lys-Glu-Alα-Phe-NH2 [Ac-18A-NH2, amphipathic α-helix of class A peptide, N-acetylated and C-amidated 18A]
effect on passive cholesterol transfer (in words) (normal human BBMV): no inhibitory effect
half time of residual cholesterol uptake by native BBMV not inhibited by the peptide (normal human BBMV; 60 μM Ac-18A-NH2): 6.7 ± 1.4 h
IC50 (normal human BBMV; donor egg PC vesicles 0.01 mg lipid/ml, acceptor normal human BBMV 0.25 mg lipid/ml, 20 min, read-out: Inhibition IC50: concentration required to reduce protein-mediated cholesterol uptake by 50%): 23 ± 1 µM
inhibition of protein-mediated cholesterol uptake (in words) (normal human BBMV; human duodenal BBMV): effectively and completely inhibited
inhibitory effect on cholesteryl oleate uptake (in words, footnote) (BBMVs): Useful inhibitory effect is seen with Peptides Nos. 1 and 2.
Inhibition of Cholesteryloleate Uptake In. % (BBMVs; donor 0.05 mg total lipid/ml, acceptor 5 mg protein/ml, 23° C.): 100%
inhibitory effect on cholesterol transfer between phospholipid vesicles (in words) [3]: no inhibitory effect

Reference: patent US20010005714A1, “AMPHIPATHIC MOLECULES AS CHOLESTEROL AND OTHER LIPID UPTAKE INHIBITORS” (priority 1996, published 2001)
